Assay results as given in US10414754B2, “Indolizine compounds, a process for their preparation and pharmaceutical compositions containing them” (LES LABORATOIRES SERVIER, priority 2013, dated 2019).
Where a name gives a salt, the structure may show the parent alone.

Key:
Bcl-2 protein = target: T1, Bcl-2 protein (histag-Bcl-2, UniProtKB P10415) (Homo sapiens, UniProt P10415); experiment: Inhibition of Bcl-2 by the fluorescence polarisation technique; type: binding; settings: for IC50: fluorescence polarisation, 2 hours incubation, read-out: IC50 (nM) Bcl-2 FP
T1 construct: His tag
T1 sequence (P10415 whole entry): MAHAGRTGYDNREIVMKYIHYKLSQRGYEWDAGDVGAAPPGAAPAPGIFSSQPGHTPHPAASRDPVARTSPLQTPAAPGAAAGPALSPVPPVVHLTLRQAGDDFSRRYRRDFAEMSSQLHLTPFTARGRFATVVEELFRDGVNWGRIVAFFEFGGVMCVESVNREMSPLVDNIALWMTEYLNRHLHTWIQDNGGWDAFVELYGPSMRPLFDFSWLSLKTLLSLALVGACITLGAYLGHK
Summary of the method: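 Fluorescence polarisation competition: His-tagged human Bcl-2 (2.50×10^−8 M final) was mixed with fluorescein-labelled peptide (1.00×10^−8 M final) and increasing compound concentrations. Buffer was 10 mM Hepes, 150 mM NaCl, 0.05% Tween20, pH 7.4. Polarisation was read after 2 h.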

[1] = tested on: RS4;11 leukaemia tumour line; experiment: In vitro cytotoxicity (MTT) on RS4;11; type: cell-based; settings: RS4;11 cells, 48 hours exposure
Experimental: The cytotoxicity studies were carried out on the RS4;11 leukaemia tumour line.
The cells are distributed onto microplates and exposed to the test compounds for 48 hours.
The cell viability is then quantified by a colorimetric assay, the Microculture Tetrazolium Assay (Cancer Res., 1987, 47, 939-942).

IC50 (Bcl-2 protein)	percentage fluorescence polarisation inhibition (partial inhibitors), Bcl-2 FP (Bcl-2 protein; @ 10 μM test compound)	Compound	IC50 ([1]; Homo sapiens)	IC50 [1]
299 nM	–	CC(C)N(C(=O)c1cc(-c2cc3c(cc2C(=O)N2Cc4ccccc4C[C@H]2C)OCO3)n2c1CNCC2)c1ccc(O)cc1 [Example 80, N-(4-Hydroxyphenyl)-6-(6-{[(3R)-3-methyl-3,4-dihydroisoquinolin-2(1H)-yl]carbonyl}-1,3-benzodioxol-5-yl)-N-(propan-2-yl)-1,2,3,4-tetrahydro-pyrrolo[1,2-a]pyrazine-8-carboxamide]	1880 nM	–
12.1 nM	–	C[C@@H]1Cc2ccccc2CN1C(=O)c1cc2c(cc1-c1cc(C(=O)N(C)c3ccc(O)cc3)c3n1CCCC3)OCO2 [Example 81, N-(4-Hydroxyphenyl)-N-methyl-3-(6-{[(3R)-3-methyl-3,4-dihydroiso-quinolin-2(1H)-yl]carbonyl}-1,3-benzodioxol-5-yl)-5,6,7,8-tetrahydroindolizine-1-carboxamide]	778 nM	–
–	42% @ 10 μM	C[C@H]1Cc2ccccc2CN1C(=O)c1cc2c(cc1-c1cc(C(=O)N(C)c3ccc(O)cc3)c3n1CCCC3)OCO2 [Example 82, N-(4-Hydroxyphenyl)-N-methyl-3-(6-{[(3S)-3-methyl-3,4-dihydroiso-quinolin-2(1H)-yl]carbonyl}-1,3-benzodioxol-5-yl)-5,6,7,8-tetrahydroindolizine-1-carboxamide]	–	1880 nM
35.8 nM	–	CN(C(=O)c1cc(-c2cc3c(cc2C(=O)N2CCc4ccccc4C2)OCO3)n2ccccc12)c1ccc(O)cc1 [Example 83, 3-[6-(3,4-Dihydroisoquinolin-2(1H)-ylcarbonyl)-1,3-benzodioxol-5-yl]-N-(4-hydroxyphenyl)-N-methylindolizine-1-carboxamide]	1500 nM	–
5 nM	–	Cc1cnn2cc(N(C(=O)c3cc(-c4cc5c(cc4C(=O)N4Cc6ccccc6C[C@H]4C)OCO5)n4ccccc34)c3ccc(O)cc3)cnc12 [Example 86, N-(4-Hydroxyphenyl)-3-[6-[(3R)-3-methyl-3,4-dihydro-1H-isoquinoline-2-carbonyl]-1,3-benzodioxol-5-yl]-N-(3-methylpyrazolo[1,5-a]pyrimidin-6-yl)-indolizine-1-carboxamide hydrochloride]	20.1 nM	–
